Data published in patent US12517131B2, “Methods for labeling eukaryotic cells from a multicellular organism as well as for treating and/or diagnosing a cancer using modified monosaccharide compounds” (DIAMIDEX, priority 2019, dated 2026).

Experiments:
Assay in all cases: Comparison of labeling of Ara-N3 and KDO-N3
Format in all cases: cell-based, human
Details in all cases: same conditions as in example 2
HeLa = tested on: HeLa
Raw = tested on: Raw
Macrophages = tested on: Macrophages

Measured: labelling of cells (fluorescence intensity)

[N-]=[N+]=NC[C@@H](O)[C@@H](O)[C@H](O)[C@H](O)CC(=O)C(=O)O [KDO-N3, 8-azido-3,8-dideoxy-D-manno-octulosonic acid]
not labelled: all assays above
